The nature of series [1]: in vitro. In kind it is cell-based. The following applies: human. On the procedure: (§1) Huh7.5 cells were grown in Dulbecco's modified essential media (DMEM), 10% fetal bovine serum (FBS), 1% penicillin-streptomycin (pen-strep), 1% Non-essential amino acids (NEAA) in a 5% CO2 incubator at 37° C. Huh7.5 cells were seeded at 1×10^4 cells per well into 96-well plates according to Southern Research Institute standard format. Test articles were serially diluted with DMEM plus 5% FBS. The diluted compound in the amount of 50 μl was mixed with equal volume of cell culture-derived HCV (HCVcc), then applied to appropriate wells in the plate. Human interferon alpha-2b (rIFNα-2b) and/or Sofosbuvir were included as a positive control. After 72 hr incubation at 37° C., the cells were lysed for measurement of luciferase activity using Renilla Luciferase Assay System (Promega) according to manufacturer's instruction. The number of cells in each well were determined by CytoTox-1 reagent (Promega). Test articles were tested at 6 serial dilutions in triplicate to derive, if applicable, EC50 and EC90 (concentration inhibiting HCVcc infectivity by 50% and 90%, respectively), CC50 (concentration decreasing cell viability by 50%) and SI (selectivity index: CC50/EC50) values (Table 1).

Series [2] is described as follows: HCV replicon assay, cytotoxicity (CytoTox-1 cell proliferation assay). In kind it is cell-based. The following applies: HCV replicon cells, In vitro HCV replicon assay, post infection, read-out: CC50 (concentration decreasing cell viability by 50%). On the procedure: (§2) Briefly, the replicon cells were plated at 5,000 cells/well into 96-well plates that were dedicated for the analysis of cell numbers (cytotoxicity) or antiviral activity. On the following day, samples were diluted with assay media and added to the appropriate wells. Cells were processed 72 hours later when the cells were still sub-confluent. For the luciferase endpoint assay, HCV replicon levels were assessed as replicon-derived Luc activity. The concentration of drug that reduced cell viability was assessed by the fluorometric CytoTox-1 cell proliferation assay (Promega), (expressed as cell numbers). For the qRT-PCR/TaqMan assay, total RNA was extracted from the replicon cells using RNeasy 96 kit (Qiagen) according to the manufacturer's protocol. Real-time RTPCR/TaqMan assays were performed to measure copy numbers of the replicon RNA and cellular ribosomal RNA. Where applicable EC50 (concentration inhibiting HCV replicon by 50%), EC90 (concentration inhibiting HCV replicon by 90%), CC50 (concentration decreasing cell viability by 50%), CC90 (concentration decreasing cell viability by 90%) and SI (selectivity indices: CC50/EC50 and CC90/EC90) values were derived.

For series [3], the system named is cell culture-derived HCV (HCVcc). Briefly: microbe, parasite or virus in culture. In kind it is cell-based, hepatitis C virus. Here is the method:
as §1

In series [4] the test system is HCV GT1B replicon. Briefly: HCV replicon assay (antiviral, luciferase / qRT-PCR endpoint). Format: cell-based, hepatitis C virus. Here is the method:
Stable HCV replicons of different genotypes may be used for anti-HCV evaluation.
The HCV replicon antiviral evaluation assay examined the effects of compounds at six serial dilutions. Human interferon alpha-2b (rIFNα-2b) and/or Sofosbuvir were included in each run as a positive control compound.
as §2

In the case of `CC[C@H](c1ccc(O)cc1)[C@@H](CC)c1ccc(O)cc1` [Hexestrol, meso 3,4-bis(4-hydroxyphenyl)hexane], the values for the CC50 at 72 h in series [1] and in series [2] were 50.4 µM and 27.4 µM, respectively. Moreover, the “anti-Hepatitis C activity (in words)” value in series [3] (Hepatitis C viral infectivity assay) and in series [4] (HCV replicon assay) was “significant anti-Hepatitis C activity” each time. Moreover, the EC50 in series [3] (Hepatitis C virus, Huh7.5, 72 h, read-out: EC50 (concentration inhibiting HCVcc infectivity by 50%)) is 2.85 µM; in series [4] (Hepatitis C virus, GT1B, 72 h, read-out: EC50 (concentration inhibiting HCV replicon by 50%)), 10.9 µM. For the same compound, the “Selectivity index (CC50/EC50)” value in series [3] (In vitro HCVcc assay) is recorded as 14.2; in series [4] (In vitro HCV replicon assay), 2.51.

The values above are taken from patent US10765644B2, “Methods for the treatment of hepatitis C” (priority 2015, dated 2020).
